Source: patent EP2695891B1, “OCTAPEPTIDE, RADIOPHARMACEUTICAL AGENT BASED THEREON AND METHOD FOR DIAGNOSING TUMORS” (Aktsionernoe Obschestvo "Pharm-Sintez", priority 2011, dated 2018)
Where two headings read alike, the source gives them in different places.

Columns and labels:
[1] = in vivo; settings: female, F1 CBAxC57B1 hybrids, mouse, iv, total radioactivity
Description: (§1) In vivo experiments were conducted using laboratory female mice (F1 CBAxC57B1 hybrids, 18-20g). The animals were obtained from the brooder of the Biomedical Technology Research Centre at the Russian Academy of Medical Sciences in Andreevka. Pigmented B16 mice melanoma was tangled. B16 melanoma cells suspension was administered SC in aseptic conditions. Tumour growth was investigated visually. The animals were enrolled into the experiment 9-12 days after the inoculation, when the tumour diameter was 8-12cm.
(§2) During the experiment the animals were housed in standard conditions (special room, recommended food, free access to fresh water, natural lighting).
(§3) Urinary bladder filling was achieved by suturing the outer urethral orifice. The radioactivity in the sampled organs and tissues was measured by the direct radiometry method. 5 experiments were conducted, at least 3 animals were used for each experimental point.

[2] = test system: B16 melanoma; assay: potency distribution in mice with tangled B16 melanoma after IV administration (direct radiometry of organs and tissues); settings: for Urinary bladder: full urinary bladder; for Blood: mice with B16 melanoma
Description: as §1, §2, §3

[3] = as above; settings: female, F1 CBAxC57B1 hybrids, mouse, tumour and muscle, iv, total radioactivity
Description: as §1, §2, §3

[4] = test system: B16 melanoma; settings: mouse, in vivo
Description: as §1, §2, §3

Structure (SMILES) | Kidneys ([2]; 30 min after IV administration) | Liver ([2]; 30 min after IV administration) | Muscle ([2]; 30 min after IV administration) [%/g] | Tumour ([2]; 30 min after IV administration) [%/g] | Blood ([2]; 30 min after IV administration) | Kidneys ([2]; 60 min after IV administration) | Liver ([2]; 60 min after IV administration) | Muscle ([2]; 60 min after IV administration) [%/g] | Tumour ([2]; 60 min after IV administration) [%/g] | Blood ([2]; 60 min after IV administration) | further results
C[C@@H](O)[C@H](NC(=O)[C@@H]1CSSC[C@H](NC(=O)[C@H](CCCCN)NC(=O)CN2CCN(CC(=O)O)CCN(CC(=O)O)CCN(CC(=O)O)CC2)C(=O)N[C@@H](Cc2ccc(O)cc2)C(=O)N[C@H](Cc2c[nH]c3ccccc23)C(=O)N[C@@H](CCCCN)C(=O)N[C@@H]([C@@H](C)O)C(=O)N1)C(=O)O [1a, marked ^68Ga, metal not drawn] |  |  |  |  |  |  |  |  |  |  | tissue to tissue ratio at 0.5 h [1]: 2.4
C[C@@H](O)[C@H](NC(=O)[C@@H]1CSSC[C@H](NC(=O)[C@@H](N)CCCCNC(=O)CN2CCN(CC(=O)O)CCN(CC(=O)O)CCN(CC(=O)O)CC2)C(=O)N[C@@H](Cc2ccc(O)cc2)C(=O)N[C@H](Cc2c[nH]c3ccccc23)C(=O)N[C@@H](CCCCN)C(=O)N[C@@H]([C@@H](C)O)C(=O)N1)C(=O)O [1b, marked ^68Ga, metal not drawn] | 3.4 ± 0.3 % of the administered dose | 1.8 ± 0.7 % of the administered dose | 0.6 ± 0.1 | 2.5 ± 0.7 | 2.4 ± 0.4 % of the administered dose | 5.4 ± 0.6 % of the administered dose | 1.1 ± 0.1 % of the administered dose | 0.06 ± 0.01 | 1.2 ± 0.2 | 0.5 ± 0.07 % of the administered dose | Urinary bladder ([2]; 30 min after IV administration): 53.4 ± 7.7 % of the administered dose; Urinary bladder ([2]; 60 min after IV administration): 35.5 ± 3.1 % of the administered dose; tissue to tissue ratio at 0.5 h [3]: 4.2
C[C@@H](O)[C@H](NC(=O)[C@@H]1CSSC[C@H](NC(=O)[C@H](CCCCN)NC(=O)CN2CCN(CC(=O)O)CCN(CC(=O)O)CCN(CC(=O)O)CC2)C(=O)N[C@@H](Cc2ccc(O)cc2)C(=O)N[C@H](Cc2c[nH]c3ccccc23)C(=O)N[C@@H](CCCCN)C(=O)N[C@@H]([C@@H](C)O)C(=O)N1)C(=O)O [Compound 1a] |  |  |  |  |  |  |  |  |  |  | tissue to tissue ratio at 1 h [1]: 7.5; accumulation in tumour as compared to ^68Ga-marked DE [4]: larger; blood clearance as compared to ^68Ga-marked DE [4]: faster blood clearance; renal clearance as compared to ^68Ga-marked DE [4]: faster renal clearance
C[C@@H](O)[C@H](NC(=O)[C@@H]1CSSC[C@H](NC(=O)[C@@H](N)CCCCNC(=O)CN2CCN(CC(=O)O)CCN(CC(=O)O)CCN(CC(=O)O)CC2)C(=O)N[C@@H](Cc2ccc(O)cc2)C(=O)N[C@H](Cc2c[nH]c3ccccc23)C(=O)N[C@@H](CCCCN)C(=O)N[C@@H]([C@@H](C)O)C(=O)N1)C(=O)O [Compound 1b] |  |  |  |  |  |  |  |  |  |  | accumulation in tumour as compared to ^68Ga-marked comparison substance ([2]; 60 min after administration, fold higher than DE): 2.4 times; accumulation in tumour as compared to ^68Ga-marked DE ([2]; ^68Ga-marked, in words): larger; blood clearance as compared to ^68Ga-marked DE ([2]; ^68Ga-marked, in words): faster blood clearance; renal clearance as compared to ^68Ga-marked DE ([2]; ^68Ga-marked, in words): faster renal clearance; ratio of accumulation in tumour and muscle as compared to DE ([2]; both in 30 and in 60 minutes after administration, in words): higher; tissue to tissue ratio at 1 h [3]: 20
C[C@@H](O)[C@H](NC(=O)[C@@H]1CSSC[C@H](NC(=O)[C@@H](Cc2ccccc2)NC(=O)CN2CCN(CC(=O)O)CCN(CC(=O)O)CCN(CC(=O)O)CC2)C(=O)N[C@@H](Cc2ccc(O)cc2)C(=O)N[C@H](Cc2c[nH]c3ccccc23)C(=O)N[C@@H](CCCCN)C(=O)N[C@@H]([C@@H](C)O)C(=O)N1)C(=O)O [DE, marked ^68Ga, metal not drawn, reference compound] | 1.6 ± 0.6 % of the administered dose | 2.8 ± 1.5 % of the administered dose | 0.6 ± 0.04 | 1.0 ± 0.2 | 2.6 ± 0.5 % of the administered dose | 1.6 ± 0.6 % of the administered dose | 2.8 ± 0.5 % of the administered dose | 0.5 ± 0.04 | 0.5 ± 0.24 | 2.6 ± 0.6 % of the administered dose | 
